Key:
[1] = target: T1, β2AR (Homo sapiens, UniProt P07550); assay: GloSensor cAMP formation assay; type: cell-based; settings: from cAMP formation and β-arrestin recruitment
[2] = target: T1, β2AR; assay: Bias factor by the operational model, β-arrestin recruitment; type: cell-based

T1 sequence (P07550 whole entry): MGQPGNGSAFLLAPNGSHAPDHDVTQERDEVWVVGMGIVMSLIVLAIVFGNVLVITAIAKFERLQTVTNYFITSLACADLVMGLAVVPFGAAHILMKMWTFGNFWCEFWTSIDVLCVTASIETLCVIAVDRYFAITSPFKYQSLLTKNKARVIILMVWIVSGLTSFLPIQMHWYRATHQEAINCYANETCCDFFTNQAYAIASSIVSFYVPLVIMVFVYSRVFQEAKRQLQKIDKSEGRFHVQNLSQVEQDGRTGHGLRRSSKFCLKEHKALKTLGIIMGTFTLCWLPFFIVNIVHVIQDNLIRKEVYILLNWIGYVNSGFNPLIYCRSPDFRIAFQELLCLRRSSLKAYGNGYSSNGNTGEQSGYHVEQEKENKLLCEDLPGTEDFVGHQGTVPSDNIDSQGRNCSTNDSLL

With `CC(Cc1ccc2c(c1)OCO2)NCC(O)c1ccc(O)c(O)c1` (stereo not drawn) [Compound 12, protokylol] the “agonist efficacy class at β2AR” value [1] was “full agonists”, the “times more efficacious in β-arrestin recruitment than in G protein-mediated cAMP production” value ([2]; compared to isoproterenol, the unbiased reference) was “approximately 10 times” and the bias factor ([2]; toward β-arrestin, from both Tango and DiscoveRx β-arrestin against Glosensor cAMP data sets, reference isoproterenol) was “around 1”.

Reference: publication PMC3658555 (ACS Chemical Biology, 2013)
